This passage reports TGI results from PubChem BioAssay (NCI).

Molecules are shown by their SMILES.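 Step 1: Grow cells in 96-well plates. Step 2: Expose to compound for 48 hours at 5 concentrations. Step 3: Interpolate endpoints linearly; if unreached, use highest concentration. At the TGI there is no net growth.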 Where a SMILES comes first, the peptide text is derived from it. [ ]: non-standard residue; d: D form. ΔPro = O=C(O)[CH]1C=CCN1

Some test systems named below: BT-549 breast; CAKI-1 renal; COLO 205 colon; M14 melanoma; NCI-H226 lung; NCI-H23 lung; NCI-H460 lung; OVCAR-3 ovarian; OVCAR-5 ovarian; SF-539 CNS; SK-MEL-2 melanoma; SK-MEL-28 melanoma; UACC-257 melanoma; UACC-62 melanoma.
What all share (experiment): inhibition of tumour cell growth, NCI panel, 48 h

Take `Clc1sc(Cl)c2c1[C@H](Cl)C[C@@H]2Cl`: the TGI came out at 62.5 µM in the assay with BT-549 breast; 44.5 µM in the assay with CAKI-1 renal; 62.2 µM in the assay on COLO 205 colon; 37.4 µM with M14 melanoma; 39.8 µM in the assay on NCI-H226 lung; 50 µM in the assay with NCI-H23 lung. The TGI was above 100 µM in the assay with NCI-H460 lung; 70.9 µM in the assay on OVCAR-3 ovarian; 81.2 µM with OVCAR-5 ovarian; 42.4 µM in the assay with SF-539 CNS; 65.9 µM with SK-MEL-2 melanoma; 38.1 µM in the assay with SK-MEL-28 melanoma. Also, the figures for the TGI in the assay on UACC-257 melanoma and in the assay on UACC-62 melanoma were 92.9 µM and 43.7 µM, respectively.

Regarding `O=C(O)C1C=CCN1C(=O)C1C=CCN1C(=O)C1C=CCN1` (stereo not drawn) (H-[ΔPro]-[ΔPro]-[ΔPro]-OH; configuration not given here), the TGI with BT-549 breast, in the assay on CAKI-1 renal, with COLO 205 colon, in the assay on M14 melanoma, in the assay on NCI-H226 lung and in the assay on NCI-H23 lung was above 100 µM in each case. In addition, the TGI with NCI-H460 lung, in the assay on OVCAR-3 ovarian, in the assay with OVCAR-5 ovarian, in the assay on SF-539 CNS, in the assay on SK-MEL-2 melanoma and in the assay on SK-MEL-28 melanoma was above 100 µM each time. Also, the TGI in the assay on UACC-257 melanoma and in the assay with UACC-62 melanoma was above 100 µM in each case.
